# Tested on: C57BL/6 mice, bleomycin-induced pulmonary fibrosis
# Experiment: Bleomycin-induced pulmonary fibrosis in mice
# Assay type: in vivo
# Parameters: key to Collagen, improvement in BLM-induced alterations versus disease control / Alpha-Smooth Muscle Actin, improvement in BLM-induced alterations versus disease control / Body Weight, improvement in BLM-induced alterations versus disease control / Right Lung Weight, improvement in BLM-induced alterations versus disease control / Hydroxyproline, improvement in BLM-induced alterations versus disease control: + = >5-25% improvement vs disease control; ++ = >26-50% improvement vs disease control; +++ = >51-100% improvement v disease control; NS means not significant
# Conditions: for Body Weight, improvement in BLM-induced alterations versus disease control / Right Lung Weight, improvement in BLM-induced alterations versus disease control: days 3-21; for Collagen, improvement in BLM-induced alterations versus disease control / Hydroxyproline, improvement in BLM-induced alterations versus disease control / TGF-Beta, improvement in BLM-induced alterations versus disease control: right lung homogenate
# Method: Lung fibrosis in C57BL/6 mice is induced by a single […] injection of the chemotherapy drug bleomycin. Mice are treated with vehicle or test compound. At termination (study day 28), one lung is weighed, with increased weight indicating more advanced fibrosis. Lung tissue is also homogenized for hydroxyproline, collagen, and TGF-β quantification. Lung tissue is also formalin-fixed and further processed for H&E, collagen morphometry, Ashcroft's score, and both α-SMA and TUNEL expression analyses. Plasma is analyzed by multiplex bead array for MMP-2, MMP-9, IL-1β, IL-6, IL-12, and TNF-α expression.
# The experimental design described in Example B1 with the following changes was used to assess the ability of Compound 1a to reduce pulmonary fibrosis. Briefly, Male C57BL/6 mice (Envigo) […] were used. The mice were 3.5-4 months old and ˜24-30 g by weight. On day −1 animals were randomized based on body weight and the animals were assigned with a permanent number by ear notching. Cages were identified by cage cards indicating the study code, group number, sex, dose, cage number, number of animals and animal number details.
# On day 0, all animals (except the sham control animals) were administered bleomycin (0.03 U in 50 μl normal saline) intratracheally (i.t.) under Ketamine+Xylazine anesthesia. The sham control animals were dosed with 50 μl of normal saline intratracheally. Pirfenidone was used as a positive control; this compound is known to downregulate growth factors and procollagens to reduce fibrosis and is an approved drug for the treatment of idiopathic pulmonary fibrosis.
# Vehicle, pirfenidone and test Compound 1a dosing was initiated from day 3 to day 21 as described in the following Table 2. On day 21 whole blood was collected 1-hour post-dose into EDTA and then processed to plasma. Right lungs were then collected, weighed, snap frozen and later homogenized for biochemical analysis. Hydroxyproline, collagen and TGF-Beta levels were measured in the right lung homogenates.
# [1] = dose 0.2 mg/kg PO daily, day 21
# [2] = dose 0.8 mg/kg PO daily, day 21
compound,measurement,setting,value
CCC(C)CN1CC2N(C(=O)c3ccc(C(F)(F)F)cc3)CCC(=O)N2[C@@H](C)C1=O (stereo partly drawn) [Compound 1a],body weight loss compared to the other treatment groups,0.8 mg/k,slightly greater weight loss
same,collagen in right lung homogenate compared with pirfenidone,2 mg/kg,about the same levels of collagen
same,collagen concentration in right lung homogenates,8 mg/kg,reduced compared to the pirfenidone positive control
same,hydroxyproline concentration in right lung homogenates at termination,"8 mg/kg and 2 mg/kg, also less than pirfenidone-treated animals",lower concentrations of hydroxyproline
same,weight of whole right lungs at termination (day 21),"8 mg/kg and 2 mg/kg, versus pirfenidone-treated animals",less than the positive control
same,alpha-smooth muscle actin expression,"8 mg/kg, day 21",significantly reduced expression of this marker
same,bleomycin-induced increases in TGF-β in right lung homogenates,"all doses, day 21",significantly protected against bleomycin-induced increases in TGF-β
same,protection against bleomycin-induced body weight loss,"all treatment groups, over the study period",did not protect against body weight loss
same,"Body Weight, improvement in BLM-induced alterations versus disease control",dose 0.2 mg/kg PO daily,NS
same,"Right Lung Weight, improvement in BLM-induced alterations versus disease control",[1],NS
same,"Alpha-Smooth Muscle Actin, improvement in BLM-induced alterations versus disease control",[1],+ (+ = >5-25% improvement vs disease control)
same,"Collagen, improvement in BLM-induced alterations versus disease control",[1],NS
same,"Hydroxyproline, improvement in BLM-induced alterations versus disease control",[1],NS
same,"TGF-Beta, improvement in BLM-induced alterations versus disease control",[1],+++ (+++ = >51-100% improvement v disease control)
same,"Body Weight, improvement in BLM-induced alterations versus disease control",dose 0.8 mg/kg PO daily,NS
same,"Right Lung Weight, improvement in BLM-induced alterations versus disease control",[2],+ (+ = >5-25% improvement vs disease control)
same,"Alpha-Smooth Muscle Actin, improvement in BLM-induced alterations versus disease control",[2],NS
same,"Collagen, improvement in BLM-induced alterations versus disease control",[2],+ (+ = >5-25% improvement vs disease control)
same,"Hydroxyproline, improvement in BLM-induced alterations versus disease control",[2],NS
same,"TGF-Beta, improvement in BLM-induced alterations versus disease control",[2],+++ (+++ = >51-100% improvement v disease control)
same,"Body Weight, improvement in BLM-induced alterations versus disease control",dose 2 mg/kg PO daily,NS
same,"Right Lung Weight, improvement in BLM-induced alterations versus disease control","dose 2 mg/kg PO daily, day 21",+ (+ = >5-25% improvement vs disease control)
same,"Alpha-Smooth Muscle Actin, improvement in BLM-induced alterations versus disease control","dose 2 mg/kg PO daily, day 21",+ (+ = >5-25% improvement vs disease control)
same,"Collagen, improvement in BLM-induced alterations versus disease control","dose 2 mg/kg PO daily, day 21",++ (++ = >26-50% improvement vs disease control)
same,"Hydroxyproline, improvement in BLM-induced alterations versus disease control","dose 2 mg/kg PO daily, day 21",++ (++ = >26-50% improvement vs disease control)
same,"TGF-Beta, improvement in BLM-induced alterations versus disease control","dose 2 mg/kg PO daily, day 21",+++ (+++ = >51-100% improvement v disease control)
same,"Body Weight, improvement in BLM-induced alterations versus disease control",dose 8 mg/kg PO daily,NS
same,"Right Lung Weight, improvement in BLM-induced alterations versus disease control","dose 8 mg/kg PO daily, day 21",++ (++ = >26-50% improvement vs disease control)
same,"Alpha-Smooth Muscle Actin, improvement in BLM-induced alterations versus disease control","dose 8 mg/kg PO daily, day 21",++ (++ = >26-50% improvement vs disease control)
same,"Collagen, improvement in BLM-induced alterations versus disease control","dose 8 mg/kg PO daily, day 21",+++ (+++ = >51-100% improvement v disease control)
same,"Hydroxyproline, improvement in BLM-induced alterations versus disease control","dose 8 mg/kg PO daily, day 21",+ (+ = >5-25% improvement vs disease control)
same,"TGF-Beta, improvement in BLM-induced alterations versus disease control","dose 8 mg/kg PO daily, day 21",+++ (+++ = >51-100% improvement v disease control)
same,alpha-smooth muscle actin morphometory,"other doses of Compound 1a, pirfenidone doses, day 21",insignificant decreases

# From US20250288587A1, “Methods of Treating Fibrosis” (Athira Pharma, Inc., priority 2022, published 2025)
